Assays:
washed platelets [1] = experiment: LDH release assay on washed platelets; type: cell-based, human; conditions: 50 and 100 μM, 15 min at 37 °C, fluorescence
Procedure: The isolated WP (prepared as described in Section 2.12) were transferred to a 96-well plate for fluorescence measurements. Next, the OGF-Gm conjugate and the OGF at 50 and 100 μM concentrations were added. The control sample consisted of platelets suspended in Tyrod buffer. The positive control was WP treated with lysis buffer (0.1% Triton X-100) and the lysis buffered-WPs were set to 100%. Platelets with tested compounds were incubated for 15 min at 37 °C. Then, 100 μL of the LDH assay was added to each well and incubated for another 10 min, protected from light. The reaction was stopped with a Stop Solution buffer. Fluorescence intensity was measured with a plate reader (λex 560 nm; λem 590 nm). The results were expressed as the percentage of the total LDH release.

[2] = Stability in DMEM supplemented with 10% FBS; type: in vitro ADME; conditions: DMEM + 10% FBS
Procedure: The OGF-Gem conjugate and OGF alone were incubated in a medium (DMEM) supplemented with 10% FBS at a temperature of 37 °C. The initial concentrations of the peptide and conjugate solutions were both 0.5 mM. Samples of 60 μL were taken immediately after the start of incubation, 30 min, 90 min, 180 min, and 23 h and mixed with 60 μL of acetonitrile to separate the proteins. The formed precipitate was removed via centrifugation for 15 min at 13,000 rpm. The supernatant was analyzed via RP-HPLC [(Shimadzu Prominence, Duisburg, Germany) linear gradient 10–90% phase B, 20 min., column Kinetex 5 μm XB-C18 100Å 150 × 4.6 mm] and MALDI-MS (Autoflex maX MALDI-TOF spectrometer, Bruker Daltonics, Bremen, Germany) using a 2,5-dihydroxybenzoic acid matrix (DHB). A stability analysis was performed according to a protocol previously described by us.

washed platelets [3] = experiment: Platelet aggregation by compounds alone, light aggregometry; conditions: tested concentration
[4] = tested on: AsPC-1-induced platelet aggregation (washed platelets); experiment: Tumor cell-induced platelet aggregation (TCIPA), light aggregometry and TEM; type: cell-based, human; conditions: 50, 100 μM (any tested concentration), 10 min pre-incubation with washed platelets, AsPC-1 2 × 10^5/mL
Procedure: The MIA PaCa-2 and AsPC-1 cell cultures were washed and detached with 7 mM EDTA buffer. Next, the buffer was aspirated, and cells were centrifuged for 5 min at 1200 rpm and resuspended in Tyrod buffer. For TCIPA determination, MIA PaCa-2 cells were prepared at different concentrations: 10^5, 2 × 10^5, 5 × 10^5, 10^6 cells/mL; and AsPC-1 cells at concentrations of 5 × 10^4, 10^5, 2 × 10^5 cells/mL [31, 32, 33].
Samples collected after the TCIPA determination using the light aggregometer were fixed in 2.5% glutaraldehyde. The samples were then stained with 1% OsO4, gradually dehydrated with ethanol solution (30–100%), and embedded in EPON solution. Slides were prepared using a Leica UC7 ultramicrotome and stained with Uranyless and Reynolds lead citrate. Preparations were analyzed using a Tecnai G2 Spirit BioTWIN TEM [31].

[5] = tested on: HDFa human primary dermal fibroblasts; experiment: MTT viability assay, HDFa
Procedure: (§1) The MIA PaCa-2 and AsPC-1 pancreatic cancer cell lines were obtained from the American Type Culture Collection (ATCC; Manassas, VA, USA). MIA PaCa-2, a human pancreatic cancer cell line, was isolated from the pancreatic duct (ATCC, CRL-1420) and cultured in Dulbecco’s Modified Eagle’s Medium (DMEM), supplemented with 10% FBS, 2.5% horse serum, and 1% penicillin/streptomycin (P/S). AsPC-1, a human metastatic pancreatic tumor cell line (ATCC, CRL-1682), was cultured in Roswell Park Memorial Institute 1640 Medium, supplemented with 10% FBS and 1% P/S. HDFa, a human primary dermal fibroblast was obtained from the American Type Culture Collection (ATCC; Manassas, VA, USA). The HDFa was cultured in DMEM and supplemented with 10% FBS and 1% P/S. HEK-293 immortalized human embryonic kidney was obtained courtesy of Professor Ewa Augustin from the Gdansk University of Technology. The HEK-293 was cultured in DMEM, and supplemented with 10% FBS and 1% P/S. Cells were cultured at 37 °C in a humidified atmosphere with 5% CO2. The cells were maintained in a 75 cm^2 tissue culture flask. The medium was replaced every two days. […]
(§2) In a 96-well plate, 7 × 10^3 MIA PaCa-2 and AsPC-1 cells and 3 × 10^3 HEK-293 and 10^4 HDFa cells were seeded per well. […] Cell viability was assessed using the MTT assay. […]

MIA PaCa-2 cells = experiment: Cell senescence (flow cytometry and optical microscopy), MIA PaCa-2; type: cell-based, human; conditions: MIA PaCa-2, 72 h; OGF-Gem increasing concentrations (3.125–100 nM), OGF 100 nM, Gem 100 nM
Procedure: In a 6-well plate, 1.7 × 10^5 MIA PaCa-2 and AsPC-1 cells were seeded per well. […] After incubation, the floating and attached cells were collected using a 1% BSA solution and fixed with 2% paraformaldehyde in PBS for 10 min at room temperature. The cells were washed with 1% BSA solution and incubated with the Senescence Detection Kit for 1.5 h at 37 °C without CO2, protected from light. Next, cell senescence was measured via flow cytometry (λex 490 nm; λem 514 nm). Ten thousand events were measured per sample. The data were expressed as a percentage of untreated cells (set to 100%), which were the control.
In a 12-well plate, 10^5 PaCa-2 and AsPC-1 cells were seeded per well. […] The medium was removed from each well and washed with a PBS (pH 7.2) buffer. The cells were incubated with fixative solution (0.2% glutaraldehyde, 2% paraformaldehyde, and a PBS buffer) for 5 min at room temperature. The cells were washed with a PBS (pH 6.0) buffer. Next, the cells were incubated with a staining solution (1 mg/mL X-Gal/DMF, 5 mM K3Fe(CN)6, 5 mM K4Fe(CN)6, 2 mM MgCl2, 150 mM NaCl, and 40 mM citric acid/buffer Na2HPO4) for 16 h at 37 °C, without CO2. After incubation, the cells were observed using an optical microscope (magnification 20x).

[6] = tested on: HEK-293 human embryonic kidney cells; experiment: MTT viability assay, HEK-293
Procedure: as §1, §2

[7] = tested on: AsPC-1 metastatic pancreatic cancer cells; experiment: MTT cytotoxicity assay, AsPC-1; type: cell-based, human; conditions: AsPC-1, 72 h
Procedure: The medium was replaced every two days.
Cell viability was assessed using the MTT assay.

[8] = all tested concentrations (1.56–100 nM), 3 days

In the case of `CSCC[C@H](NC(=O)[C@H](Cc1ccccc1)NC(=O)CNC(=O)CNC(=O)[C@@H](N)Cc1ccc(O)cc1)C(=O)O` [OGF, [Met^5]-enkephalin, reference compound], the “LDH release from platelets” value (washed platelets [1]) is reported as “did not result in significant releases of LDH”, the “concentration after 23 h compared to the initial state” value ([2]; 37 °C, 0.5 mM, 23 h, RP-HPLC) is reported as “lower” and the “presence of intact compound after 23 h (HPLC)” value ([2]; 37 °C, 0.5 mM, 23 h, RP-HPLC) is reported as “still present”. The “effect on platelet aggregation (compound alone)” value (“effect on platelet aggregation” for short) (washed platelets [3]) was “do not affect platelet aggregation”.

With `Nc1ccn([C@@H]2O[C@H](CO)[C@@H](O)C2(F)F)c(=O)n1` [Gem, gemcitabine] the “inhibition of TCIPA” value [4] was “did not inhibit”, the HDFa cell viability ([5]; 100 nM, 72 h, % of control) was 35% and the “induction of cell senescence” value (MIA PaCa-2 cells) was “induced”. For the same compound, the “reduction in HEK-293 cell viability” value ([6]; 100 nM, 72 h, compared to the 100 nM OGF-Gem derivative) was 80% and the “effect on platelet aggregation” value (washed platelets [3]) was “do not affect platelet aggregation”.

For `CSCC[C@H](NC(=O)[C@H](Cc1ccccc1)NC(=O)CNC(=O)CNC(=O)[C@H](Cc1ccc(O)cc1)NC(=O)CCC(=O)OC[C@H]1O[C@@H](n2ccc(N)nc2=O)C(F)(F)[C@@H]1O)C(=O)O` [OGF-Gem], the “cytotoxicity to HDFa” value [5, 8] was “slight cytotoxicity effect”, the “LDH release from platelets” value (washed platelets [1]) was “did not result in significant releases of LDH” and the “presence of intact compound after 23 h (MS)” value ([2]; 37 °C, 0.5 mM, 23 h, MALDI-MS) was “not confirmed”. For the same compound, the “presence of intact compound after 23 h (HPLC)” value ([2]; 37 °C, 0.5 mM, 23 h, RP-HPLC) was “confirmed”, the “presence of intact compound after 3 days (HPLC)” value ([2]; 3 days at room temperature, RP-HPLC) was “confirmed” and the “release of parent drug during incubation” value ([2]; HPLC and MS) was “gradual release of free Gem”. The remaining at 23 h, 0.5 mM ([2]; DMEM supplemented with 10% FBS, 37 °C, 0.5 mM, 23 h, RP-HPLC, read-out: HPLC peak area of intact conjugate after 23 h relative to area just after start of incubation) was roughly 39%, the “cytotoxicity to HEK-293” value [6, 8] was “slight cytotoxicity effect” and the “cytotoxic effect compared to the commonly used chemotherapeutic agent (Gem)” value [7] was “more pronounced cytotoxic effect”. For the same compound, the “effect on platelet aggregation” value (washed platelets [3]) was “do not affect platelet aggregation”.
